Laboratory results reported in patent EP4342885A1, “N-(3-(AMINOMETHYL)-PHENYL)-5-(4-PHENYL)-5-(TRIFLUOROMETHYL)-4,5-DIHYDROISOXAZOL-3-AMINE DERIVATIVES AND SIMILAR COMPOUNDS AS PESTICIDES” (priority 2022, dated 2024).

Key:
Format in all cases: in vivo
[1] = system: Anthonomus grandis; assay: Boll weevil (Anthonomus grandis) control, 96-well microtiter plate insect diet with eggs; details: 120 h, read-out: mortality in comparison with untreated controls
Experimental: For evaluating control of boll weevil, the test unit consisted of 96-well-microtiter plates containing an insect diet and 5-10 A. grandis eggs.
The compounds were formulated using a solution containing 75% v/v water and 25% v/v DMSO. Different concentrations of formulated compounds were sprayed onto the insect diet at 5µl, using a custom-built micro atomizer, at two replications.
After application, microtiter plates were incubated at about 25 ± 1°C and about 75 ± 5 % relative humidity for 5 days. Egg and larval mortality were then visually assessed.

[2] = system: Myzus persicae; assay: Green peach aphid (Myzus persicae), mixed life stages, systemic test via artificial diet under membrane; details: 72 h, read-out: mortality in comparison with untreated controls
From the text: For evaluating control of Green Peach Aphid through systemic means the test unit consisted of 96-well-microtiter plates containing liquid artificial diet under an artificial membrane. The compounds were formulated using a solution containing 75% v/v water and 25% v/v DMSO. Different concentrations of formulated compounds were pipetted into the aphid diet, using a custom-built pipette, at two replications. After application, 5 - 8 adult aphids were placed on the artificial membrane inside the microtiter plate wells. The aphids were then allowed to suck on the treated aphid diet and incubated at about 23 ± 1°C and about 50 ± 5 % relative humidity for 3 days. Aphid mortality and fecundity was then visually assessed.

[3] = system: Heliothis virescens; assay: Tobacco budworm (Heliothis virescens) control, 96-well microtiter plate insect diet with eggs; details: 120 h, read-out: mortality in comparison with untreated controls
Experimental: For evaluating control of Tobacco Budworm, the test unit consisted of 96-well-microtiter plates containing an insect diet and 15-25 H. virescens eggs. The compounds were formulated using a solution containing 75% v/v water and 25% v/v DMSO. Different concentrations of formulated compounds were sprayed onto the insect diet at 10µl, using a custom-built micro atomizer, at two replications. After application, microtiter plates were incubated at about 28 ± 1°C and about 80 ± 5 % relative humidity for 5 days. Egg and larval mortality was then visually assessed.

[4] = system: Plutella xylostella; assay: Diamond back moth (Plutella xylostella) control, 96-well microtiter plate insect diet with eggs; details: 120 h, read-out: mortality in comparison with untreated controls
Experimental: For evaluating control of […] (Plutella xylostella) the test unit consisted of 96-well-microtiter plates containing an insect diet and 15-25 P. xylostella eggs.
The compounds or mixtures were formulated using a solution containing 75% water and 25% DMSO. Different concentrations of formulated compounds or mixtures were sprayed onto the insect diet at 5µl, using a custom-built micro atomizer, at two replications.
After application, microtiter plates were incubated at 28 ± 1°C, 80 ± 5 % RH for 5 days. Egg and larval mortality was then visually assessed.

[5] = system: Aedes aegypti; assay: whole plant or invertebrate; details: 48 h, larval mortality, 2 days, read-out: mortality in comparison with untreated controls
Experimental: For evaluating control of Yellow Fever Mosquito, the test unit consisted of 96-well-microtiter plates containing 200µl of tap water per well and 5-15 freshly hatched A. aegypti larvae. The active compounds were formulated using a solution containing 75% (v/v) water and 25% (v/v) DMSO. Different concentrations of formulated compounds or mixtures were sprayed onto the insect diet at 2.5µl, using a custom-built micro atomizer, at two replications.
After application, microtiter plates were incubated at 28 ± 1°C, 80 ± 5 % RH for 2 days. Larval mortality was then visually assessed.

Measured: mortality at 800 ppm

CCC(=O)NCc1cc(NC2=NOC(c3cc(Cl)cc(Cl)c3)(C(F)(F)F)C2)ccc1F (centres unmarked) [I-2]
not listed: [5]
≥ 75%: all other assays above

COCCC(=O)NCc1cc(NC2=NOC(c3cc(Cl)cc(Cl)c3)(C(F)(F)F)C2)ccc1F (centres unmarked) [I-3]
not listed: [4]
≥ 75%: all other assays above

CS(=O)(=O)CC(=O)NCc1cc(NC2=NOC(c3cc(Cl)cc(Cl)c3)(C(F)(F)F)C2)ccc1F (centres unmarked) [I-4]
not listed: [4]
≥ 75%: all other assays above

O=C(CC1CC1)NCc1cc(NC2=NOC(c3cc(Cl)cc(Cl)c3)(C(F)(F)F)C2)ccc1F (centres unmarked) [I-6]
not listed: [4]
≥ 75%: all other assays above

O=C(NCc1cc(NC2=NOC(c3cc(Cl)cc(Cl)c3)(C(F)(F)F)C2)ccc1F)c1ncon1 (centres unmarked) [I-7]
≥ 75%: [1]

COCC(=O)NCc1cc(NC2=NOC(c3cc(Cl)cc(Cl)c3)(C(F)(F)F)C2)ccc1F (centres unmarked) [I-9]
≥ 75%: [1] | [2]

COC(=O)N1CCCC1C(=O)NCc1cc(NC2=NOC(c3cc(Cl)cc(Cl)c3)(C(F)(F)F)C2)ccc1F (centres unmarked) [I-10]
≥ 75%: [1]

O=C(NCc1cc(NC2=NOC(c3cc(Cl)cc(Cl)c3)(C(F)(F)F)C2)ccc1F)c1ccccn1 (centres unmarked) [I-11]
≥ 75%: [1] | [4]

CON=CC(=O)NCc1cc(NC2=NOC(c3cc(Cl)cc(Cl)c3)(C(F)(F)F)C2)ccc1F (centres unmarked) [I-12]
not listed: [5]
≥ 75%: all other assays above

CCS(=O)(=O)NCc1cc(NC2=NOC(c3cc(Cl)cc(Cl)c3)(C(F)(F)F)C2)ccc1F (centres unmarked) [I-13]
≥ 75%: all assays above

O=C(NCc1cc(NC2=NOC(c3cc(Cl)c(F)c(Cl)c3)(C(F)(F)F)C2)ccc1Cl)C1CC1 (centres unmarked) [I-14]
≥ 75%: all assays above

CCN(C1=NOC(c2cc(Cl)c(F)c(Cl)c2)(C(F)(F)F)C1)c1ccc(F)c(CNC(=O)C2CC2)c1 (centres unmarked) [I-15]
≥ 75%: all assays above

O=C(NCc1cc(NC2=NOC(c3cc(Cl)c(F)c(Cl)c3)(C(F)(F)F)C2)ccc1F)C1CC1 (centres unmarked) [I-16]
≥ 75%: all assays above

CN(Cc1cc(NC2=NOC(c3cc(Cl)c(F)c(Cl)c3)(C(F)(F)F)C2)ccc1F)C(=O)C1CC1 (centres unmarked) [I-17]
not listed: [2]
≥ 75%: all other assays above

O=C(CNC(=O)C1CC1)NCc1cc(NC2=NOC(c3ccc(F)c(Cl)c3)(C(F)(F)F)C2)ccc1Cl (centres unmarked) [I-26]
not listed: [3]
≥ 75%: all other assays above

O=C(Cc1ccccc1)NCc1cc(NC2=NOC(c3ccc(F)c(Cl)c3)(C(F)(F)F)C2)ccc1Cl (centres unmarked) [I-27]
≥ 75%: [5]

O=C(NCc1cc(NC2=NOC(c3ccc(F)c(Cl)c3)(C(F)(F)F)C2)ccc1Cl)C1CC=CC1 (centres unmarked) [I-29]
not listed: [3]
≥ 75%: all other assays above

O=C(CN1CCCC1=O)NCc1cc(NC2=NOC(c3ccc(F)c(Cl)c3)(C(F)(F)F)C2)ccc1Cl (centres unmarked) [I-31]
≥ 75%: [2] | [5]

O=C(CC1OCCO1)NCc1cc(NC2=NOC(c3ccc(F)c(Cl)c3)(C(F)(F)F)C2)ccc1Cl (centres unmarked) [I-33]
≥ 75%: [1] | [5] | [4]

N#Cc1ccc(C(=O)NCc2cc(NC3=NOC(c4ccc(F)c(Cl)c4)(C(F)(F)F)C3)ccc2Cl)s1 (centres unmarked) [I-34]
≥ 75%: [1] | [5] | [4]

Cn1ncc(C#N)c1C(=O)NCc1cc(NC2=NOC(c3ccc(F)c(Cl)c3)(C(F)(F)F)C2)ccc1Cl (centres unmarked) [I-37]
≥ 75%: [5] | [4]

O=C(Cn1cccn1)NCc1cc(NC2=NOC(c3ccc(F)c(Cl)c3)(C(F)(F)F)C2)ccc1Cl (centres unmarked) [I-38]
≥ 75%: [1] | [5] | [4]

O=C(Cn1cncn1)NCc1cc(NC2=NOC(c3ccc(F)c(Cl)c3)(C(F)(F)F)C2)ccc1Cl (centres unmarked) [I-40]
not listed: [3]
≥ 75%: all other assays above

O=C(Cc1ccsc1)NCc1cc(NC2=NOC(c3ccc(F)c(Cl)c3)(C(F)(F)F)C2)ccc1Cl (centres unmarked) [I-44]
not listed: [3]
≥ 75%: all other assays above

CS(=O)(=O)N1CC(C(=O)NCc2cc(NC3=NOC(c4ccc(F)c(Cl)c4)(C(F)(F)F)C3)ccc2Cl)C1 (centres unmarked) [I-46]
not listed: [3]
≥ 75%: all other assays above

CS(=O)(=O)NCC(=O)NCc1cc(NC2=NOC(c3ccc(F)c(Cl)c3)(C(F)(F)F)C2)ccc1Cl (centres unmarked) [I-47]
not listed: [3]
≥ 75%: all other assays above

O=C(CC1CCS(=O)(=O)C1)NCc1cc(NC2=NOC(c3ccc(F)c(Cl)c3)(C(F)(F)F)C2)ccc1Cl (centres unmarked) [I-49]
≥ 75%: [1] | [2] | [5]

N#CCC(=O)NCc1cc(NC2=NOC(c3ccc(F)c(Cl)c3)(C(F)(F)F)C2)ccc1Cl (centres unmarked) [I-51]
not listed: [3]
≥ 75%: all other assays above
